Measured values published in patent publication US9475822B2, “Substituted 2- amidoquinazol-4-ones as matrix metalloproteinase-13 inhibitors” (Takeda Pharmaceutical Company Limited, priority 2004, dated 2016).

Test system: not given
Assay: not given
Conditions: not given

Row | SMILES | melting point
1 | COc1cccc(CNC(=O)c2nc3ccc(I)cc3c(=O)[nH]2)c1 [Example 104, 6-iodo-N-{[3-(methyloxy)phenyl]methyl}-4-oxo-3,4-dihydroquinazoline-2-carboxamide] | 219 to 220 °C
2 | COc1cccc(CNC(=O)c2nc3ccc(CN4CCOCC4)cc3c(=O)[nH]2)c1 [Example 116, N-{[3-(methyloxy)phenyl]methyl}-6-(morpholin-4-ylmethyl)-4-oxo-3,4-dihydroquinazoline-2-carboxamide] | 126 to 129 °C
3 | COc1cc(CNC(=O)c2nc3cnn(CCCc4ccccc4)c3c(=O)[nH]2)ccc1F [Example 244, N-(4-fluoro-3-methoxybenzyl)-7-oxo-1-(3-phenylpropyl)-6,7-dihydro-1H-pyrazolo[4,3-d]pyrimidine-5-carboxamide] | 155 to 157 °C
4 | CCOC(=O)Cc1csc2nc(C(=O)NCc3cccc(OC)c3)[nH]c(=O)c12 [Example 251, ethyl (2-{[(3-methoxybenzyl)amino]carbonyl}-4-oxo-3,4-dihydrothieno[2,3-d]pyrimidin-5-yl)acetate] | 169 to 171 °C

Other lines, results leading:

Row | melting point | SMILES
5 | 203 to 206 °C | COc1cccc(CNC(=O)c2nc3ccc(Cl)cc3c(=O)[nH]2)c1 [Example 83, 6-chloro-N-{[3-(methyloxy)phenyl]methyl}-4-oxo-3,4-dihydroquinazoline-2-carboxamide]
6 | 223 to 225 °C | COc1cccc(CNC(=O)c2nc3ccc(N)cc3c(=O)[nH]2)c1 [Example 100, 6-amino-N-{[3-(methyloxy)phenyl]methyl}-4-oxo-3,4-dihydroquinazoline-2-carboxamide]
7 | 138 to 140 °C | COc1cccc(CNC(=O)c2nc3cnn(CCCc4ccccc4)c3c(=O)[nH]2)c1 [Example 243, N-(3-methoxybenzyl)-7-oxo-1-(3-phenylpropyl)-6,7-dihydro-1H-pyrazolo[4,3-d]pyrimidine-5-carboxamide]
8 | 230 to 231 °C | COc1cccc(CNC(=O)c2nc3cnn(CCOc4ccc(C(=O)O)cc4)c3c(=O)[nH]2)c1 [Example 250, 4-[2-(5-{[(3-methoxybenzyl)amino]carbonyl}-7-oxo-6,7-dihydro-1H-pyrazolo[4,3-d]pyrimidin-1-yl)ethoxy]benzoic acid]
9 | 175 to 178 °C | CCOC(=O)Cc1ccc(OCc2csc3nc(C(=O)NCc4cccc(OC)c4)[nH]c(=O)c23)cc1 [Example 256, ethyl {4-[(2-{[(3-methoxybenzyl)amino]carbonyl}-4-oxo-3,4-dihydrothieno[2,3-d]pyrimidin-5-yl)methoxy]phenyl}acetate]
10 | 228 to 230 °C | COc1cccc(CNC(=O)c2nc3scc(COc4ccc(CC(=O)O)cc4)c3c(=O)[nH]2)c1 [Example 257, {4-[(2-{[(3-methoxybenzyl)amino]carbonyl}-4-oxo-3,4-dihydrothieno[2,3-d]pyrimidin-5-yl)methoxy]phenyl}acetic acid]

Target: T1, MMP-13 (Homo sapiens, UniProt P45452)
T1 construct: purchased GenzymeTechne
Assay: MMP-13 inhibitory activity (fluorogenic peptide substrate enzyme assay)
Format: biochemical
Conditions: compound 1 μM; substrate Cy3-PLGLK(Cy5Q)AR-NH2; 37° C., 40 min
Protocol: To 10 μg of MMP-13 precursor (GenzymeTechne) was added 1 ml of assay buffer (50 mM Tris-HCl (pH 7.5), 10 mM CaCl2, 150 mM NaCl, 0.05% Brij-35), and 4-aminophenylmercuric acid (Sigma) was added to the final concentration of 1 mM. The MMP-13 precursor was activated by incubating at 37° C. for 2 hrs.
In a 96 well black plate (Corning), to 6.3 ng/ml of MMP-13 solution (49 μl) diluted with assay buffer was added the test compound (1 μl) diluted with dimethyl sulfoxide (DMSO) and 620 nM Cy3-PLGLK(Cy5Q)AR—NH2 (50 μl, synthesized by Amersham Biosciences) in assay buffer was added to start the enzyme reaction. After incubation at 37° C. for 40 min, 500 mM EDTA solution (6 μl) was added to stop the reaction. For measurement, Farcyte (Amersham Biosciences) was used to measure at excitation wavelength 535 nm and measurement wavelength 595 nm.
T: value of well with addition of DMSO instead of test compound
C: value of well with addition of DMSO instead of test compound and addition of EDTA solution before addition of substrate solution
X: value of well with addition of test compound

Row | SMILES | MMP-13 activity inhibitory rate (%)
11 | COc1cccc(CNC(=O)c2nc3ccc(F)c(OCCc4ccc(C(=O)[O-])cc4)c3c(=O)[n-]2)c1.[Na+].[Na+] [Example 287, Disodium 4-[2-({6-fluoro-2-[({[3-(methyloxy)phenyl]methyl}amino)carbonyl]-4-oxo-4H-quinazolin-3-id-5-yl}oxy)ethyl]benzoate] | 98%
12 | COc1cccc(CNC(=O)c2nc3scc(COCc4ccc(C(=O)[O-])cc4)c3c(=O)[n-]2)c1.[Na+].[Na+] [Example 384, Disodium 4-{[({2-[({[3-(methyloxy)phenyl]methyl}amino)carbonyl]-4-oxo-4H-thieno[2,3-d]pyrimidin-3-id-5-yl}methyl)oxy]methyl}benzoate] | 91%
13 | COc1cccc(CNC(=O)c2nc3scc(COCc4ccc(C(=O)[O-])cc4)c3c(=O)[nH]2)c1.[K+] [Example 385, Potassium 4-{[({2-[({[3-(methyloxy)phenyl]methyl}amino)carbonyl]-4-oxo-3,4-dihydrothieno[2,3-d]pyrimidin-5-yl}methyl)oxy]methyl}benzoate] | 96%

Same assay, conditions: compound 1 μM; substrate Cy3-PLGLK(Cy5Q)AR-NH2; 37° C., 40 min; 1 µM

Row | SMILES | MMP-13 activity inhibitory rate (%)
14 | COc1cccc(CNC(=O)c2nc3scc(COCc4ccc(C(=O)O)cc4)c3c(=O)[nH]2)c1 [Example 217, 4-{[({2-[({[3-(methyloxy)phenyl]methyl}amino)carbonyl]-4-oxo-3,4-dihydrothieno[2,3-d]pyrimidin-5-yl}methyl)oxy]methyl}benzoic acid] | 100%
15 | COc1cccc(CNC(=O)c2nc3scc(COCc4ccc(C(=O)O)cc4)c3c(=O)[nH]2)c1 [Example 386, Dipotassium 4-{[({2-[({[3-(methyloxy)phenyl]methyl}amino)carbonyl]-4-oxo-4H-thieno[2,3-d]pyrimidin-3-id-5-yl}methyl)oxy]methyl}benzoate] | 94%

Same assay, conditions: compound 1 μM; substrate Cy3-PLGLK(Cy5Q)AR-NH2; 37° C., 40 min; read-out: MMP-13 activity inhibitory rate (%)

Row | SMILES | inhibition at 1 µM
16 | COc1cccc(CNC(=O)c2nc3ccccc3c(=O)[nH]2)c1 [Example 1, N-{[3-(methyloxy)phenyl]methyl}-4-oxo-3,4-dihydroquinazoline-2-carboxamide] | 91%
17 | COc1cccc(CNC(=O)c2nc3ccc(F)c(OCCc4ccc(C(=O)O)cc4)c3c(=O)[nH]2)c1 [Example 179, 4-[2-({6-Fluoro-2-[({[3-(methyloxy)phenyl]methyl}amino)carbonyl]-4-oxo-3,4-dihydroquinazolin-5-yl}oxy)ethyl]benzoic acid] | 99%
18 | O=C(O)c1ccc(COCc2csc3nc(C(=O)NCc4ccc(F)c(Cl)c4)[nH]c(=O)c23)cc1 [Example 339, 4-[({[2-({[(3-chloro-4-fluorophenyl)methyl]amino}carbonyl)-4-oxo-3,4-dihydrothieno[2,3-d]pyrimidin-5-yl]methyl}oxy)methyl]benzoic acid] | 96%

Now from value to compound:

Row | inhibition at 1 µM | SMILES
19 | 94% | COc1cccc(CNC(=O)c2nc3sccc3c(=O)[nH]2)c1 [Example 209, N-{[3-(methyloxy)phenyl]methyl}-4-oxo-3,4-dihydrothieno[2,3-d]pyrimidine-2-carboxamide]
20 | 98% | Cc1cc(CNC(=O)c2nc3scc(COCc4ccc(C(=O)O)cc4)c3c(=O)[nH]2)ccc1F [Example 341, 4-[({[2-({[(4-fluoro-3-methylphenyl)methyl]amino}carbonyl)-4-oxo-3,4-dihydrothieno[2,3-d]pyrimidin-5-yl]methyl}oxy)methyl]benzoic acid]
21 | 93% | CCOc1cccc(CNC(=O)c2nc3scc(COCc4ccc(C(=O)O)cc4)c3c(=O)[nH]2)c1 [Example 366, 4-{[({2-[({[3-(ethyloxy)phenyl]methyl}amino)carbonyl]-4-oxo-3,4-dihydrothieno[2,3-d]pyrimidin-5-yl}methyl)oxy]methyl}benzoic acid]

Same assay, conditions: read-out: MMP-13 activity inhibitory rate (%), compound 1 μM; substrate Cy3-PLGLK(Cy5Q)AR-NH2; 37° C., 40 min

Row | SMILES | inhibition at 1 µM
22 | COc1cccc(CNC(=O)c2nc3ccc(F)c(OCCc4ccc(C(=O)O)cc4)c3c(=O)[nH]2)c1 [Example 286, Sodium 4-[2-({6-fluoro-2-[({[3-(methyloxy)phenyl]methyl}amino)carbonyl]-4-oxo-3,4-dihydroquinazolin-5-yl}oxy)ethyl]benzoate] | 97%
23 | COc1cccc(CNC(=O)c2nc3scc(COCc4ccc(C(=O)O)cc4)c3c(=O)[nH]2)c1 [Example 383, Sodium 4-{[({2-[({[3-(methyloxy)phenyl]methyl}amino)carbonyl]-4-oxo-3,4-dihydrothieno[2,3-d]pyrimidin-5-yl}methyl)oxy]methyl}benzoate] | 91%
